Assay results reported in patent US5354862A, “Preparation and the use of halopropargylated cyclic quaternary ammonium compounds as antimicrobial agents” (Rohm and Haas Company, priority 1993, dated 1994).
Read-outs that look alike come from different tables or passages of the source.

Assays:
Experiment in all cases: Broth two-fold serial dilution MIC test
Staphylococcus aureus = type: cell-based, Staphylococcus aureus (ATCC 6538); details: Saur
Procedure, shortened: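 Broth two-fold serial dilution from 500 ppm down to 0.25 ppm, compound delivered from acetone/methanol/water stock, inoculated with standardized cell suspension and incubated at an organism-appropriate temperature. MIC is the lowest concentration giving complete growth inhibition.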

Aspergillus niger = type: cell-based, Aspergillus niger (ATCC 6275); details: Anig, TSB media
Procedure, shortened: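 Two-fold broth serial dilution from 500 ppm down to 0.25 ppm, compound stock in acetone/methanol/water 5:3:2. Vessels inoculated with standardized spore suspension harvested from agar slants, incubated at a species-appropriate temperature, then scored for growth/no growth. MIC is the lowest concentration giving complete growth inhibition.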

Pseudomonas aeruginosa = type: cell-based, Pseudomonas aeruginosa (ATCC 15442); details: Psae
Procedure, shortened: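 Broth two-fold serial dilution MIC (500 to 0.25 ppm) was run against Pseudomonas aeruginosa, with compound from 1% stock in acetone/methanol/water 5:3:2. Vessels inoculated with standardized broth-grown cells were incubated, then scored for growth. MIC is the lowest concentration giving complete growth inhibition.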

Escherichia coli = type: cell-based, Escherichia coli (ATCC 11229); details: Ecol
Procedure, shortened: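 Broth two-fold serial dilutions ran from 500 down to 0.25 ppm, prepared from a stock in acetone/methanol/water (5:3:2). Each tube received a standardized bacterial suspension and was incubated at a temperature suited to the species. MIC is the lowest concentration giving complete growth inhibition.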

[1] = Staphylococcus aureus, Table 2, M9G media, read-out: MIC
[2] = Staphylococcus aureus, Table 2, TSB media, read-out: MIC
[3] = Aspergillus niger, Table 2, read-out: MIC
[4] = Pseudomonas aeruginosa, Table 2, M9G media, read-out: MIC
[5] = Pseudomonas aeruginosa, Table 2, TSB media, read-out: MIC
[6] = Escherichia coli, Table 2, M9G media, read-out: MIC
[7] = Escherichia coli, Table 2, TSB media, read-out: MIC

| Structure (SMILES) | MIC (Staphylococcus aureus; Table 2, M9G media) | MIC (Staphylococcus aureus; Table 2, TSB media) | MIC (Aspergillus niger; Table 2) | MIC (Pseudomonas aeruginosa; Table 2, M9G media) | MIC (Pseudomonas aeruginosa; Table 2, TSB media) | MIC (Escherichia coli; Table 2, M9G media) | MIC (Escherichia coli; Table 2, TSB media) | MIC (Staphylococcus aureus; [1]) | MIC (Staphylococcus aureus; [2]) | MIC (Aspergillus niger; [3]) | MIC (Pseudomonas aeruginosa; [4]) | MIC (Pseudomonas aeruginosa; [5]) | MIC (Escherichia coli; [6]) | MIC (Escherichia coli; [7]) | MIC (Staphylococcus aureus; Staphylococcus aureus, Table 3 comparison, M9G media, read-out: MIC) | MIC (Staphylococcus aureus; Staphylococcus aureus, Table 3 comparison, TSB media, read-out: MIC) | MIC (Aspergillus niger; Aspergillus niger, Table 3 comparison, read-out: MIC) | MIC (Pseudomonas aeruginosa; Pseudomonas aeruginosa, Table 3 comparison, M9G media, read-out: MIC) | MIC (Pseudomonas aeruginosa; Pseudomonas aeruginosa, Table 3 comparison, TSB media, read-out: MIC) | MIC (Escherichia coli; Escherichia coli, Table 3 comparison, TSB media, read-out: MIC) |
| --- | --- | --- | --- | --- | --- | --- | --- | --- | --- | --- | --- | --- | --- | --- | --- | --- | --- | --- | --- | --- |
| CCCCCCCCCCCCCCCC[N+]1(CC#CI)CCCCC1 [Compound 60, 1-hexadecyl-1-(3-iodopropargyl)-piperidinium benzenesulfonate] | 1 ppm | 2 ppm | 16 ppm | 63 ppm | 250 ppm | 2 ppm | 16 ppm | – | – | – | – | – | – | – | – | – | – | – | – | – |
| CCCCCCCCCCCCOC(=O)C[N+]1(CC#CI)CCOCC1 [Compound 68, 4-(dodecyloxycarbonyl)methyl-4-(3-iodopropargyl)-morpholinium 4-methylbenzenesulfonate] | – | – | – | – | – | – | – | 0.5 µg/mL | 2 µg/mL | 16 µg/mL | 32 µg/mL | 64 µg/mL | 2 µg/mL | 8 µg/mL | – | – | – | – | – | – |
| C[N+]1(CC#CI)CCCCC1 [Compound 17, 1-Methyl-1-(3-Iodopropargyl)-Piperidinium 4-Methylbenzenesulfonate] | – | – | – | – | – | – | – | 32 µg/mL | 32 µg/mL | 125 µg/mL | 250 µg/mL | 125 µg/mL | – | 250 µg/mL | 32 µg/mL | 32 µg/mL | 125 µg/mL | 250 µg/mL | 125 µg/mL | 250 µg/mL |
| OCCCCCCC[N+]1(CC#CI)CCCCC1 [Compound 24, 1-(7-hydroxyheptyl)-1-(3-iodopropargyl)-piperidinium-4methylbenzenesulfonate] | – | – | – | – | – | – | – | 63 µg/mL | 500 µg/mL | > 500 µg/mL | > 500 µg/mL | > 500 µg/mL | – | > 500 µg/mL | – | – | – | – | – | – |
| CCCCCCCCCCCCCC[N+]1(CC#CI)CCCCC1C (stereo not shown) [Compound 54, 1-(tetradecyl)-1-(3-iodopropargyl)-2-methylpiperidinium 4methylbenzenesulfonate] | 1 ppm | 8 ppm | 1 ppm | 250 ppm | 125 ppm | 8 ppm | 16 ppm | – | – | – | – | – | – | – | – | – | – | – | – | – |
| CCCCCC[N+]1(CC#CI)CCCC1 [Compound 14, 1-hexyl-1-(3-iodopropargyl)-pyrrolidinium 4-methylbenzenesulfonate] | – | – | – | – | – | – | – | 16 µg/mL | 16 µg/mL | 250 µg/mL | 500 µg/mL | 500 µg/mL | 250 µg/mL | 125 µg/mL | – | – | – | – | – | – |
| OCCCCCCCCC[N+]1(CC#CI)CCCCC1 [Compound 21, 1-(9-hydroxynonyl)-1-(3-iodopropargyl)-piperidinium 4-methylbenzenesulfonate] | – | – | – | – | – | – | – | > 250 µg/mL | > 250 µg/mL | 63 µg/mL | > 250 µg/mL | > 250 µg/mL | – | > 250 µg/mL | – | – | – | – | – | – |
| CCCCCCCCCCOC(=O)C[N+]1(CC#CI)CCCC1 [Compound 70, 1-(decyloxycarbonyl)methyl-1-(3-iodopropargyt)-pyrrolidinium benzenesulfonate] | 1 ppm | 2 ppm | 32 ppm | 125 ppm | 250 ppm | 2 ppm | 8 ppm | – | – | – | – | – | – | – | – | – | – | – | – | – |
| CCCC[N+]1(CC#CI)CCCC1 [Compound 9, 1-butyl-1-(3-iodopropargyl)-pyrrolidinium 4-methylbenzenesulfonate] | – | – | – | – | – | 500 ppm | 250 ppm | 250 µg/mL | 250 µg/mL | 500 µg/mL | 500 µg/mL | > 500 µg/mL | – | – | – | – | – | – | – | – |
| CCCCCCCCCCCC[N+]1(CC#CI)CCOCC1 [Compound 90, 4-dodecyl-4-(3-iodopropargyl)-morpholinium methanesulfonate] | – | – | – | – | – | – | – | 2 µg/mL | 4 µg/mL | 16 µg/mL | 16 µg/mL | 125 µg/mL | 2 µg/mL | 4 µg/mL | – | – | – | – | – | – |
